In the NIST ThermoML archive (doi:10.1016/j.jct.2016.12.015):

Details: 101.33 kPa, Crystal, Small (less than 1 g) adiabatic calorimetry

C[C@H]1C[C@@H]2[C@H]([C@@H](O)C[C@@]3(C)[C@H]2CC[C@]3(O)C(=O)CO)[C@@]2(C)C=CC(=O)C=C12 [Methylprednisolone]
Details | molar entropy [J/K/mol]
5 K | 0.328
10 K | 2.37
15 K | 6.133
20 K | 11.27
25 K | 17.53
30 K | 24.43
35 K | 31.67
40 K | 39.13
45 K | 46.76
50 K | 54.53
60 K | 70.39
70 K | 86.6
80 K | 103
90 K | 119.5
100 K | 136.1
110 K | 152.7
120 K | 169.2
130 K | 185.7
140 K | 202.1
150 K | 218.5
160 K | 234.8
170 K | 251
180 K | 267.2
190 K | 283.3
200 K | 299.3
210 K | 315.3
220 K | 331.3
230 K | 347.2
240 K | 363.1
250 K | 379
260 K | 394.8
270 K | 410.6
280 K | 426.4
290 K | 442.3
298.15 K | 455.2
300 K | 458.1
310 K | 473.9
320 K | 489.8
330 K | 505.6
340 K | 521.4
350 K | 537.3
